The source of these data is patent US4154830A, “Unsaturated derivatives of 7-acylamido-3-cephem-4-carboxylic acid” (Carlo Erba S.p.A., priority 1977, dated 1979).

What all share (assay type): cell-based
For experiment [1], the system named is Staphylococcus aureus Smith. Nature of the experiment: minimal inhibiting concentration (MIC), Gram-positive bacteria.
Experiment [2] concerns Diplococcus aureus 39/2. Described as above.
Experiment [3] relates to Diplococcus pneumoniae ATCC6301. Described as above. As to conditions: Streptococcus pneumoniae.
The test system of experiment [4] is Streptococcus β-haemolyticus C203. The experiment is described as above.
Experiment [5] relates to Escherichia coli G. Nature of the experiment: minimal inhibiting concentration (MIC), Gram-negative bacteria.
The subject of experiment [6] is Escherichia coli 1507. The experiment is described as above.
Experiment [7] has as its system Klebsiella pneumoniae ATCC 10031. Described as above. Particulars: ATCC10031.
In experiment [8] the test system is Klebsiella aerogenes 1522E. The experiment is described as above.
Experiment [9] has as its system Enterobacter aerogenes ATCC8308. The description is as above. Particulars: Klebsiella aerogenes.
In experiment [10] the test system is Enterobacter cloacae 1321E. Described as above.
Experiment [11] has as its system Salmonella typhi Watson. The experiment is described as above. As to conditions: Salmonella enterica.
The subject of experiment [12] is Shigella sonnei ATCC11060. Described as above.
Experiment [13] deals with Proteus mirabilis ATCC9921. The description is as above.
Experiment [14] relates to staphylococci. Nature of the experiment: activity against staphylococci compared with Cefazolin. The source says: (§1) The pharmaceutical or veterinary compositions containing the compounds of the invention may be prepared in a conventional way by employing the conventional carriers and/or diluents used for the other cephalosporins. Conventional carriers or diluents are, for example, water, gelatine, lactose, starches, magnesium stearate, talc, vegetable oils, cellulose and the like.

For experiment [15], the system named is streptococci (including diplococci). The experiment in a line: activity against streptococci (including diplococci) compared with Cefazolin.
Description: as §1

For experiment [16], the system named is Gram-negative bacteria. Nature of the experiment: activity against Gram-negative bacteria. The source says:
The compounds of the invention may be administered, either to humans or to animals, in a variety of dosage forms, e.g., orally in the form of tablets, capsules, drops or syrups; rectally in the form of suppositories; parenterally, e.g. intravenously or intramuscolarly (as solutions or suspensions), with intravenous administration being preferred in emergency situation; by inhalation in the form of aerosols or solutions for nebulizers; intravaginally in the form, e.g. of bougies; or topically in the form of lotions, creams and ointments. The pharmaceutical or veterinary compositions containing the compounds of the invention may be prepared in a conventional way by employing the conventional carriers and/or diluents used for the other cephalosporins. Conventional carriers or diluents are, for example, water, gelatine, lactose, starches, magnesium stearate, talc, vegetable oils, cellulose and the like. Daily doses in the range of about 1 to about 100 mg per kg of body weight may be used, in various animal species, the exact dose depending on the age, weight and condition of the subject to be treated and on the frequency and route of administration. […]

Experiment [17] concerns 60 strains of Gram-negative microorganisms comprising Klebsiella, Escherichia coli, Proteus mirabilis and Proteus vulgaris. Nature of the experiment: activity on a series of 60 strains of Gram-negative microorganisms in comparison with Cefazolin.
Description: as §1

In experiment [18] the test system is Haemophylus influenzae. The experiment in a line: activity against Haemophylus influenzae in comparison with Cefazolin. As to conditions: 7 strains tested.
Description: as §1

The mark [19] stands for this setting: Escherichia coli G, read-out: MIC.

Values after ≈ are worked out from the molar mass of the structure shown. Where two headings read alike, the source gives them in different places.

For the compound `Cn1nnnc1SCC1=C(C(=O)O)N2C(=O)C(NC(=O)[C@H](O)c3ccccc3)[C@H]2SC1` (stereo partly drawn) [Cefamandole, 7-D-mandelamido-3-{[(1-methyl-1H-tetrazol-5-yl)-thio]-methyl}-3-cephem-4-carboxylic acid, reference compound], the MIC in experiment [1] was 0.15 µg/mL (≈ 0.324 µM); in experiment [2], 1.2 µg/mL (≈ 2.59 µM); in experiment [3], 0.019 µg/mL (≈ 0.0411 µM); in [4] it was 0.019 µg/mL (≈ 0.0411 µM); in experiment [5] (Escherichia coli) it was 2.35 µg/mL (≈ 5.08 µM); in [6] it was 0.8 µg/mL (≈ 1.73 µM). Besides, the MIC in experiment [7] amounted to 0.15 µg/mL (≈ 0.324 µM); in [8] it was 0.4 µg/mL (≈ 0.865 µM); in experiment [9], 1.6 µg/mL (≈ 3.46 µM); in [10] it was 1.6 µg/mL (≈ 3.46 µM); in experiment [11] it was 0.6 µg/mL (≈ 1.3 µM); in experiment [12] it was 2.35 µg/mL (≈ 5.08 µM). The compound also had an MIC in experiment [13] of 1.6 µg/mL (≈ 3.46 µM).

On to `Cc1nnc(SCC2=C(C(=O)O)N3C(=O)[C@@H](NC(=O)Cn4cnnn4)[C@H]3SC2)s1` [Cefazolin, 7-(1-(1H)-tetrazolylacetamido)-3-[2-(5-methyl-1,3,4-thiadiazolyl)-thiomethyl]-3-cephem-4-carboxylic acid, reference compound], for which the MIC in experiment [1] was determined as 0.05 µg/mL (≈ 0.11 µM); in experiment [2] it was 0.6 µg/mL (≈ 1.32 µM); in experiment [3] it was 0.05 µg/mL (≈ 0.11 µM); in [4], 0.05 µg/mL (≈ 0.11 µM); in experiment [5] (setting [19]), 1.6 µg/mL (≈ 3.52 µM); in [6] it was 1.6 µg/mL (≈ 3.52 µM). Further, the MIC was 0.8 µg/mL (≈ 1.76 µM) in [7]; 1.1 µg/mL (≈ 2.42 µM) in experiment [8]; 1.2 µg/mL (≈ 2.64 µM) in experiment [9]; 3.1 µg/mL (≈ 6.82 µM) in [10]; 1.6 µg/mL (≈ 3.52 µM) in [11]; 1.6 µg/mL (≈ 3.52 µM) in experiment [12]. The MIC in experiment [13] was determined as 6.2 µg/mL (≈ 13.6 µM).

As for `Cc1nnc(SCC2=C(C(=O)O)N3C(=O)C(NC(=O)CSCC#N)C3SC2)s1` (stereo not shown) [K 9227, 7-[(cyanomethyl-thio)-acetamido]-3-[2-(5-methyl-1,3,4-thiadiazolyl)-thiomethyl]-3-cephem-4-carboxylic acid, reference compound], the MIC came to 0.05 µg/mL (≈ 0.109 µM) in experiment [1]; 0.2 µg/mL (≈ 0.437 µM) in experiment [2]; 0.4 µg/mL (≈ 0.874 µM) in [3]; 0.025 µg/mL (≈ 0.0546 µM) in [4]; 3.1 µg/mL (≈ 6.77 µM) in experiment [5] (setting [19]); 1.6 µg/mL (≈ 3.5 µM) in experiment [6]. For the same compound, the MIC was determined as 0.4 µg/mL (≈ 0.874 µM) in experiment [7]; 1.6 µg/mL (≈ 3.5 µM) in experiment [8]; 1.2 µg/mL (≈ 2.62 µM) in [9]; 3.1 µg/mL (≈ 6.77 µM) in experiment [10]; 0.8 µg/mL (≈ 1.75 µM) in experiment [11]; 1.6 µg/mL (≈ 3.5 µM) in experiment [12]. In [13], the MIC came to 12.5 µg/mL (≈ 27.3 µM).

For the compound `Cn1nnnc1SCC1=C(C(=O)O)N2C(=O)C(NC(=O)CSCC#N)C2SC1` (stereo not shown) [K 10299, 7-[(cyanomethyl-thio)-acetamido]-3-[5-(1-methyl-1,2,3,4-tetrazolyl)-thiomethyl]-3-cephem-4-carboxylic acid, reference compound], the MIC was 0.075 µg/mL (≈ 0.17 µM) in experiment [1]; 0.4 µg/mL (≈ 0.906 µM) in experiment [2]; 0.2 µg/mL (≈ 0.453 µM) in [3]; 0.037 µg/mL (≈ 0.0838 µM) in [4]; 0.8 µg/mL (≈ 1.81 µM) in [5] (setting [19]); 0.8 µg/mL (≈ 1.81 µM) in experiment [6]. Further, the MIC is 0.2 µg/mL (≈ 0.453 µM) in [7]; 0.8 µg/mL (≈ 1.81 µM) in experiment [8]; 0.6 µg/mL (≈ 1.36 µM) in experiment [9]; 1.6 µg/mL (≈ 3.62 µM) in experiment [10]; 0.2 µg/mL (≈ 0.453 µM) in [11]; 1.6 µg/mL (≈ 3.62 µM) in experiment [12]. In experiment [13], 6.2 µg/mL (≈ 14 µM) was the least that counted as inhibitory (MIC).

As for `Cn1nnnc1SCC1=C(C(=O)O)N2C(=O)C(NC(=O)CS/C=C/C(N)=O)C2SC1` (stereo not drawn) [K 11457, 7-[β-carboxamido-ethylene(trans)-thio-acetamido]-3-[(1-methyl-1,2,3,4-tetrazol-5-yl)-thiomethyl]-3-cephem-4-carboxylic acid], the minimum inhibitory concentration (MIC) was 0.1 µg/mL (≈ 0.212 µM) in [1]; 0.4 µg/mL (≈ 0.848 µM) in [2]; 0.025 µg/mL (≈ 0.053 µM) in experiment [3]; 0.025 µg/mL (≈ 0.053 µM) in [4]; 0.4 µg/mL (≈ 0.848 µM) in [5] (setting [19]); 0.4 µg/mL (≈ 0.848 µM) in experiment [6]. The MIC in experiment [7] was determined as 0.15 µg/mL (≈ 0.318 µM); in experiment [8] it was 0.2 µg/mL (≈ 0.424 µM); in [9] it was 0.4 µg/mL (≈ 0.848 µM); in experiment [10], 1.6 µg/mL (≈ 3.39 µM); in experiment [11], 0.2 µg/mL (≈ 0.424 µM); in experiment [12], 1.6 µg/mL (≈ 3.39 µM). In experiment [13], this compound displayed an MIC of 3.1 µg/mL (≈ 6.57 µM).

As to `Cn1nnnc1SCC1=C(C(=O)O)N2C(=O)C(NC(=O)CS/C=C\C(N)=O)C2SC1` (stereo not drawn) [K 13031, 7-[β-carboxamido-ethylene(cis)-thio-acetamido]-3-[(1-methyl-1,2,3,4-tetrazol-5-yl)-thiomethyl]-3-cephem-4-carboxylic acid], the MIC in experiment [1] is 0.1 µg/mL (≈ 0.212 µM); in experiment [2], 0.2 µg/mL (≈ 0.424 µM); in experiment [3] it was 0.012 µg/mL (≈ 0.0254 µM); in experiment [4] it was under 0.012 µg/mL; in experiment [5] (setting [19]) it was 0.8 µg/mL (≈ 1.7 µM); in [6] it was 0.4 µg/mL (≈ 0.848 µM). Moreover, the MIC in experiment [7] is 0.2 µg/mL (≈ 0.424 µM); in [8] it was 0.2 µg/mL (≈ 0.424 µM); in experiment [9], 0.3 µg/mL (≈ 0.636 µM); in [10], 0.8 µg/mL (≈ 1.7 µM); in [11], 0.2 µg/mL (≈ 0.424 µM); in experiment [12] it was 0.3 µg/mL (≈ 0.636 µM). The compound further registered an MIC in experiment [13] of 0.8 µg/mL (≈ 1.7 µM).

Consider `Cn1nnnc1SCC1=C(C(=O)O)N2C(=O)C(NC(=O)CS/C=C\C#N)C2SC1` (stereo not drawn) [K 13101, 7-[β-cyano-ethylene(cis)-thio-acetamido]-3-[(1-methyl-1,2,3,4-tetrazol-5-yl)-thiomethyl]-3-cephem-4-carboxylic acid], for which the MIC in experiment [1] worked out at 0.025 µg/mL (≈ 0.0551 µM); in experiment [2], 0.14 µg/mL (≈ 0.309 µM); in experiment [3], 0.012 µg/mL (≈ 0.0265 µM); in experiment [4], 0.012 µg/mL (≈ 0.0265 µM); in experiment [5] (setting [19]) it was 0.14 µg/mL (≈ 0.309 µM); in experiment [6], 0.1 µg/mL (≈ 0.22 µM). The MIC in experiment [7] is 0.1 µg/mL (≈ 0.22 µM); in experiment [8] it was 0.1 µg/mL (≈ 0.22 µM); in experiment [9], 0.2 µg/mL (≈ 0.441 µM); in experiment [10], 0.56 µg/mL (≈ 1.23 µM); in experiment [11], 0.07 µg/mL (≈ 0.154 µM); in [12], 0.8 µg/mL (≈ 1.76 µM). In experiment [13], this compound registered an MIC of 0.4 µg/mL (≈ 0.882 µM). The “times more active than Cefazolin” value in experiment [14] was “about 2 times”; in experiment [15], “about 4.2 times”; in experiment [16] it was “about 9.6 times”; in experiment [18], “about 6 times”. Besides, the “activity in comparison with Cefazolin” value in [17] is “always found to be more active than Cefazolin”.

For the compound `N#C/C=C\SCC(=O)NC1C(=O)N2C(C(=O)O)=C(CSc3nncs3)CSC12` (stereo not drawn) [K 13107, 7-[β-cyano-ethylene(cis)-thio-acetamido]-3-[(1,3,4-thiadiazol-2-yl)-thiomethyl]-3-cephem-4-carboxylic acid], the MIC in experiment [1] was 0.025 µg/mL (≈ 0.0549 µM); in experiment [2], 0.14 µg/mL (≈ 0.307 µM); in experiment [3] it was under 0.006 µg/mL; in experiment [4] it was under 0.006 µg/mL; in experiment [5] (setting [19]), 0.57 µg/mL (≈ 1.25 µM); in experiment [6] it was 0.57 µg/mL (≈ 1.25 µM). Also, the MIC was 0.2 µg/mL (≈ 0.439 µM) in [7]; 0.28 µg/mL (≈ 0.615 µM) in experiment [8]; 0.4 µg/mL (≈ 0.878 µM) in experiment [9]; 1.6 µg/mL (≈ 3.51 µM) in experiment [10]; 0.2 µg/mL (≈ 0.439 µM) in [11]; 1.6 µg/mL (≈ 3.51 µM) in experiment [12]. In addition, inhibition of growth in experiment [13] (MIC) required 0.4 µg/mL (≈ 0.878 µM).

Usually MIC stands for the lowest concentration that inhibits growth of the organism.
